Patent US20090318449A1, “THERAPEUTIC LACTAMS” (ALLERGAN, INC., priority 2008, published 2009)

Test system: lashes and adjacent hairs of glaucoma patients
Experiment: Eyelash/hair growth observed in glaucoma patients treated in one eye
Assay type: in vivo, humans
Conditions: glaucoma patients treated in only one eye
Text: In the course of treating patients having glaucoma, treatment may only be appropriate in one eye. […] The lash appearance on the lids of the treated eyes would have appeared quite attractive if it represented a bilateral phenomenon. As a result of its asymmetric nature, the long lashes on one side could be construed as disturbing from a cosmetic standpoint. A systemic examination was preformed as a result of the asymmetric phenomenon. It soon became apparent that this altered appearance was not an isolated finding. […] Definite differences could be identified to varying degrees in the lashes and adjacent hairs of all patients who were taking the drug on a unilateral basis for longer than 6 months.
The changes in the lashes were apparent on gross inspection in several patients once attention was focused on the issue. In those with light colored hair and lashes, the differences were only seen easily with the aid of the high magnification and lighting capabilities of the slit lamp biomicroscope. In the course of glaucoma follow-up examination, attention is generally immediately focused on the eye itself. As a result of the high power magnification needed only one eye is seen at a time and the eye is seen at a high enough power that the lashes are not in focus. […]

With `CCNC(=O)CCC/C=C\C[C@@H]1[C@@H](/C=C/[C@@H](O)CCc2ccccc2)[C@H](O)C[C@@H]1O` [bimatoprost] the “lash appearance, treated eye versus non-treated eye” value was “longer, thicker, and fuller”.
